# In US20150353495A1 (PORTOLA PHARMACEUTICALS, INC., priority 2010, published 2015):
# Experiments:
# Format in all cases: biochemical
# JAK1 = target: T1, JAK1 (Homo sapiens, UniProt P23458); assay: Z'-LYTE kinase assay JAK1
# T1 construct: 5 μl of catalytic domain recombinant Kinase enzyme+Tyr peptide substrate (Invitrogen, CA); purchased Invitrogen
# Outline: (§1)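 Read-out is FRET fluorescence between coumarin and fluorescein on a Tyr6 peptide, lost when the development protease cleaves unphosphorylated substrate. Kinase reaction used recombinant catalytic domain with ATP, 1 h at room temperature, 1% DMSO.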
# JAK3 = target: T2, JAK3 (Homo sapiens, UniProt P52333); assay: Z'-LYTE kinase assay JAK3
# T2 construct: 5 μl of catalytic domain recombinant Kinase enzyme+Tyr peptide substrate (Invitrogen, CA); purchased Invitrogen
# Outline: as §1
# JAK2 = target: T3, JAK2 (Homo sapiens, UniProt O60674); assay: Z'-LYTE kinase assay JAK2
# T3 construct: 5 μl of catalytic domain recombinant Kinase enzyme+Tyr peptide substrate (Invitrogen, CA); purchased Invitrogen
# Outline: as §1
# T3 sequence (O60674 849-1124 limits assumed): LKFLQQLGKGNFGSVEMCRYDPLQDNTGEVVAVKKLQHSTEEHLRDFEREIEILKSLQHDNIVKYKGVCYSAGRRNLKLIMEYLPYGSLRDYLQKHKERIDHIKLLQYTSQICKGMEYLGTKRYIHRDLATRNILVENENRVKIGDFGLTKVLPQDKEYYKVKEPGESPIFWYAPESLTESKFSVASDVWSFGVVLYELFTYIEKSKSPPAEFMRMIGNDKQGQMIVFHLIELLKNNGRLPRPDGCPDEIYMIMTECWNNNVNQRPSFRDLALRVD
# T2 sequence (P52333 822-1111 limits assumed): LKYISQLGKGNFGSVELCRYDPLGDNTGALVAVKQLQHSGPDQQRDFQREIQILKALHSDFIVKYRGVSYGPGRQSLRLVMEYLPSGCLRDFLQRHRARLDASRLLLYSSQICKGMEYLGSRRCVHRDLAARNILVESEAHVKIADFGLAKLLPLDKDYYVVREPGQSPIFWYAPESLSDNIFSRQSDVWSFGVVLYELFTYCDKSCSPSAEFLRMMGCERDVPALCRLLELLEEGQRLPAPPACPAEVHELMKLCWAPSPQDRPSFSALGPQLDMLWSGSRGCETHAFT
# T1 sequence (P23458 875-1153 limits assumed): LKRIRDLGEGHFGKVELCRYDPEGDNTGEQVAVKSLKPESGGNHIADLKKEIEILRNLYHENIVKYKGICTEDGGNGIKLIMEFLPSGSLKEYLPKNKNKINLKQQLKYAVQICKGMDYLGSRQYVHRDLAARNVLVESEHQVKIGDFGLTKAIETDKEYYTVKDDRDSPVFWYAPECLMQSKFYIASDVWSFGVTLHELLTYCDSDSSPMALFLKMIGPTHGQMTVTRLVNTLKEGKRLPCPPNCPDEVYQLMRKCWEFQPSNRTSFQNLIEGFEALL
Compound,IC50 (JAK1) [nM],IC50 (JAK3) [nM],IC50 (JAK2) [nM]
"COc1ccc(Nc2cc(NCc3cccc(F)c3F)c(C(N)=O)cn2)cc1 [Example 101, 4-(2,3-difluorobenzylamino)-6-(4-methoxyphenylamino)nicotinamide]",> 1000,10 to 100,> 1000
"COc1ccc(Nc2cc(Nc3ccc(OC)cc3)c(C(N)=O)cn2)cc1 [Example 34, 4,6-bis(4-methoxyphenylamino)nicotinamide]",> 1000,> 1000,> 1000
"CCS(=O)(=O)N1CCC(Nc2cc(Nc3ccc(C4CCOCC4)cc3)ncc2C(N)=O)CC1 [Example 166, 4-(1-(ethylsulfonyl)piperidin-4-ylamino)-6-(4-(tetrahydro-2H-pyran-4-yl)phenylamino)nicotinamide]",> 1000,100 to 1000,100 to 1000
N#Cc1ccc(Nc2cc(NCc3ccccc3)c(C(N)=O)cn2)cc1 [Example 392],> 1000,100 to 1000,> 1000
"CC(=O)N(C)c1ccc(Nc2cc(NCc3cncc(F)c3)c(C(N)=O)cn2)cc1 [Example 483, 4-((5-fluoropyridin-3-yl)methylamino)-6-(4-(N-methylacetamido)phenylamino)nicotinamide]",> 1000,10 to 100,100 to 1000
"CN(C)S(=O)(=O)N1CC(c2ccc(Nc3cc(NCc4ccccc4)c(C(N)=O)cn3)cc2)C1 [Example 339, 4-(benzylamino)-6-(4-(1-(N,N-dimethylsulfamoyl)azetidin-3-yl)phenylamino)nicotinamide]",> 1000,10 to 100,> 1000
"CN(C)C(=O)N1CC(c2ccc(Nc3cc(NCc4ccccc4)c(C(N)=O)cn3)cc2)C1 [Example 337, 4-(benzylamino)-6-(4-(1-(dimethylcarbamoyl)azetidin-3-yl)phenylamino)nicotinamide]",100 to 1000,1 to 10,100 to 1000
"CN(C)C(=O)C1CN(c2ccc(Nc3cc(NCc4ccccc4)c(C(N)=O)cn3)cc2)C1 [Example 331, 4-(benzylamino)-6-(4-(3-(dimethylcarbamoyl)azetidin-1-yl)phenylamino)nicotinamide]",100 to 1000,1 to 10,100 to 1000
"NC(=O)c1cnc(Nc2ccc(-c3nc[nH]n3)cc2)cc1NCc1ccccc1 [Example 281, 6-(4-(1H-1,2,4-triazol-3-yl)phenylamino)-4-(benzylamino)nicotinamide]",100 to 1000,10 to 100,100 to 1000
"CN(C)C(=O)c1ccc(Nc2cc(NCc3ccncn3)c(C(N)=O)cn2)cc1 [Example 299, 6-(4-(dimethylcarbamoyl)phenylamino)-4-(pyrimidin-4-ylmethylamino)nicotinamide]",> 1000,> 1000,> 1000
"NC(=O)c1cnc(Nc2ccc(C(=O)N3CCC3)cc2)cc1NCC1CCCC1 [Example 48, 6-(4-(azetidine-1-carbonyl)phenylamino)-4-(cyclopentylmethylamino)nicotinamide]",100 to 1000,10 to 100,100 to 1000
"CN(CC(F)(F)F)C(=O)c1ccc(Nc2cc(NCc3cncc(F)c3)c(C(N)=O)cn2)cc1 [Example 314, 4-((5-fluoropyridin-3-yl)methylamino)-6-(4-(methyl(2,2,2-trifluoroethyl)carbamoyl)phenylamino)nicotinamide]",> 1000,10 to 100,100 to 1000
"CC(=O)Nc1ccc(Nc2cc(NCc3cccc4ccsc34)c(C(N)=O)cn2)cc1 [Example 471, 6-(4-acetamidophenylamino)-4-(benzo[b]thiophen-7-ylmethylamino)nicotinamide]",10 to 100,1 to 10,10 to 100
"Cc1cc(Nc2cc(NCc3cccc4[nH]ccc34)c(C(N)=O)cn2)ccc1C(=O)N(C)C [Example 295, 4-((1H-indol-4-yl)methylamino)-6-(4-(dimethylcarbamoyl)-3-methylphenylamino)nicotinamide]",1 to 10,< 1,1 to 10
"CCC(=O)N1CC(c2ccc(Nc3cc(NCc4cccc(F)n4)c(C(N)=O)cn3)cc2)C1 [Example 490, 4-((6-fluoropyridin-2-yl)methylamino)-6-(4-(1-propionylazetidin-3-yl)phenylamino)nicotinamide]",100 to 1000,10 to 100,100 to 1000
"CCS(=O)(=O)N1CCC[C@H](CNc2cc(Nc3ccc(OC)cc3)ncc2C(N)=O)C1 [Example 289, (R)-4-((1-(ethylsulfonyl)piperidin-3-yl)methylamino)-6-(4-methoxyphenylamino)nicotinamide]",> 1000,10 to 100,100 to 1000
"CN(C(=O)C1CC1)c1ccc(Nc2cc(NCc3cncc(F)c3)c(C(N)=O)cn2)cc1 [Example 481, 4-((5-fluoropyridin-3-yl)methylamino)-6-(4-(N-methylcyclopropanecarboxamido)phenylamino)nicotinamide]",100 to 1000,10 to 100,100 to 1000

Compound,IC50 (JAK1) [nM],IC50 (JAK3) [nM],IC50 (JAK2) [nM]
"CN(C(=O)C1CC1)c1ccc(Nc2cc(NCc3cccc4[nH]ccc34)c(C(N)=O)cn2)cc1 [Example 476, 4-((1H-indol-4-yl)methylamino)-6-(4-(N-methylcyclopropanecarboxamido)phenylamino)nicotinamide]",10 to 100,1 to 10,10 to 100
"NC(=O)c1cnc(Nc2ccc(C3CNC3)cc2)cc1NCc1cc(F)ccc1F [Example 213, 6-(4-(azetidin-3-yl)phenylamino)-4-(2,5-difluorobenzylamino)nicotinamide]",100 to 1000,1 to 10,10 to 100
"NC(=O)c1cnc(Nc2ccc(CC(=O)N3CCCC3)cc2)cc1NCc1ccccc1 [Example 329, 4-(benzylamino)-6-(4-(2-oxo-2-(pyrrolidin-1-yl)ethyl)phenylamino)nicotinamide]",100 to 1000,1 to 10,100 to 1000
"COc1ccc(Nc2cc(NCc3ccccc3)c(C(N)=O)cn2)cc1C [Example 279, 4-(benzylamino)-6-(4-methoxy-3-methylphenylamino)nicotinamide]",> 1000,10 to 100,> 1000
"CCC(=O)N(C)c1ccc(Nc2cc(NCc3cccc4ccsc34)c(C(N)=O)cn2)cc1 [Example 466, 4-(benzo[b]thiophen-7-ylmethylamino)-6-(4-(N-methylpropionamido)phenylamino)nicotinamide]",100 to 1000,1 to 10,100 to 1000
CCC(=O)N1CCC(CNc2cc(Nc3ccc(C4CCOCC4)cc3)ncc2C(N)=O)CC1 [Example 161],> 1000,> 1000,> 1000
"N#Cc1ccc(Nc2cc(NCc3cncc(F)c3)c(C(N)=O)cn2)cc1 [Example 308, 6-(4-cyanophenylamino)-4-((5-fluoropyridin-3-yl)methylamino)nicotinamide]",> 1000,10 to 100,> 1000
"COCC(=O)N1CC(c2ccc(Nc3cc(NCc4ccccc4)c(C(N)=O)cn3)cc2)C1 [Example 336, 4-(benzylamino)-6-(4-(1-(2-methoxyacetyl)azetidin-3-yl)phenylamino)nicotinamide]",100 to 1000,1 to 10,100 to 1000
"COCC(=O)N1CC(c2ccc(Nc3cc(NCc4cccc5ccsc45)c(C(N)=O)cn3)cc2)C1 [Example 495, 4-(benzo[b]thiophen-7-ylmethylamino)-6-(4-(1-(2-methoxyacetyl)azetidin-3-yl)phenylamino)nicotinamide]",100 to 1000,1 to 10,10 to 100
"COc1ccc(Nc2cc(NCc3ccncn3)c(C(N)=O)cn2)cc1 [Example 298, 6-(4-methoxyphenylamino)-4-(pyrimidin-4-ylmethylamino)nicotinamide]",> 1000,100 to 1000,> 1000
"NC(=O)c1cnc(Nc2ccc(C3CCOCC3)cc2)cc1NCc1cccnc1 [Example 185, 4-(pyridin-3-ylmethylamino)-6-(4-(tetrahydro-2H-pyran-4-yl)phenylamino)nicotinamide]",100 to 1000,10 to 100,100 to 1000
"NC(=O)c1cnc(Nc2ccc(CC(=O)NCC(F)(F)F)cc2)cc1NCc1ccccc1 [Example 341, 4-(benzylamino)-6-(4-(2-oxo-2-(2,2,2-trifluoroethylamino)ethyl)phenylamino)nicotinamide]",100 to 1000,1 to 10,100 to 1000
"CC(=O)N1CCC[C@H](CNc2cc(Nc3ccc(C(=O)N(C)C)c(F)c3)ncc2C(N)=O)C1 [Example 275, (R)-4-((1-acetylpiperidin-3-yl)methylamino)-6-(4-(dimethylcarbamoyl)-3-fluorophenylamino)nicotinamide]",> 1000,100 to 1000,> 1000
"CCC(=O)N(C)c1ccc(Nc2cc(NCc3cccc(F)n3)c(C(N)=O)cn2)cc1 [Example 488, 4-((6-fluoropyridin-2-yl)methylamino)-6-(4-(N-methylpropionamido)phenylamino)nicotinamide]",100 to 1000,10 to 100,100 to 1000
"CN(C(=O)C1CC1)c1ccc(Nc2cc(NCc3cccc4ccsc34)c(C(N)=O)cn2)cc1 [Example 467, 4-(benzo[b]thiophen-7-ylmethylamino)-6-(4-(N-methylcyclopropanecarboxamido)phenylamino)nicotinamide]",100 to 1000,10 to 100,100 to 1000
"CN(C)C(=O)C1CCN(c2ccc(Nc3cc(NCc4cccc5ccsc45)c(C(N)=O)cn3)cc2)CC1 [Example 350, 4-(benzo[b]thiophen-7-ylmethylamino)-6-(4-(4-(dimethylcarbamoyl)piperidin-1-yl)phenylamino)nicotinamide]",10 to 100,< 1,10 to 100
